Assay [1] concerns H4 cells overexpressing alpha-synuclein hemi-Venus fusion constructs (V1S+SV2). Kind of assay: Cellular model of aggregated alpha-synuclein-dependent toxicity, V1S+SV2 H4 cells. It is filed as cell-based. The conditions noted are these: 10 μM compound, 100 μM FeCl3, 0.75% DMSO, 48 h; for inhibition at 10 µM: read-out: Change in fraction of condensed nuclei (rel. to DMSO control) [%].

Assay [2] has as its target T1, alpha-synuclein (sonicated fibrils) (Homo sapiens, UniProt P37840).
T1 construct: made in house; host or cells: E. coli
Kind of assay: Modified competition binding assay, protocol 3b, reference ligand [3H]-compound 1. The following applies: reference ligand [3H]-compound 1 (1 nM). As to the method: Fibrils were prepared by aggregation of recombinant protein via constant agitation. In detail, 70 μM of alpha-synuclein mixed with 100 mM NaCl in 50 mM Tris, pH 7.0+0.02% NaN3 were incubated at 1,400 rpm, 37° C. for 96 h. 10 μM of tau46 were incubated with 0.03 mg/ml heparin in 50 mM Tris, pH=7.0 at 1,000 rpm, 37° C. for 72 h.
Plates were incubated for 4.5 hours at RT covered by removable sealing tape (PerkinElmer, Waltham, Mass., USA).
Filtration and readout were performed as described for saturation binding assays.
The fibril competition assay provides Ki values. […] This assay is suitable for a screening of non-radioactive ligands.

Assay [3] relates to H4 cells overexpressing full-length alpha-synuclein. Kind of assay: Cellular model of aggregated alpha-synuclein-dependent toxicity, full-length alpha-synuclein H4 cells. It counts as cell-based. The conditions noted are these: 10 μM compound, 100 μM FeCl3, 0.75% DMSO, 48 h; for inhibition at 10 µM: read-out: Change in fraction of condensed nuclei (rel. to DMSO control) [%].
The target of the next assay is T2, aggregated Abeta (Homo sapiens, UniProt P05067).
T2 construct: Aβ1-42 was obtained from rPeptide; purchased rPeptide, Watkinsville, Ga., USA
The experiment in a line: Saturation binding assay, protocol 2a, Abeta fibrils. The conditions noted are these: saturation assay protocol 2a, [3H]-labeled compound. As to the method: (§1) Alpha-synuclein and tau46 were purified from E. coli according to established protocols (Nuscher B, et al., J. Biol. Chem., 2004; 279(21):21966-75), Aβ1-42 was obtained from rPeptide, Watkinsville, Ga., USA. Fibrils were prepared by aggregation of recombinant protein via constant agitation. In detail, 70 μM of alpha-synuclein mixed with 100 mM NaCl in 50 mM Tris, pH 7.0+0.02% NaN3 were incubated at 1,400 rpm, 37° C. for 96 h. 10 μM of tau46 were incubated with 0.03 mg/ml heparin in 50 mM Tris, pH=7.0 at 1,000 rpm, 37° C. for 72 h. Aβ1-42 was solved in 20 mM NaPi, pH=8.0+0.2 mM EDTA+0.02% NaN3 (Deeg A A, et al., Biochim. Biophys. Acta, 2015; 1850(9): 1884-90; Goedert M, et al. Nature, 1996; 383(6600): 550-3).
Sonicated αSYN (0.04 μM) or tau46 (0.4 μM) or Aβ1-42 (6 μM) fibrils diluted in PBS were incubated with decreasing concentrations of [^3H]-labeled compound (48 nM or 24 nM-[…]) in 50 mM Tris-base, 10% ethanol, 0.05% Tween20, pH 7.4. […]
Assay plates were incubated under agitation at 37° C. for 2 h, covered by plastic foil (Resealable tape, PerkinElmer, Waltham, Mass., USA). […] Accumulation of tritium was counted in a liquid scintillation counter (Wallac MicroBeta® TriLux, 1450 LSC & Luminescence Counter, PerkinElmer, Waltham, Mass., USA) immediately. Radioactivity was plotted against the increasing tritium-labeled compound or cold compound concentrations. […]

For assay [4], the target named is T3, aggregated alpha-synuclein (Homo sapiens, UniProt P37840).
T3 construct: made in house; host or cells: E. coli
Kind of assay: Saturation binding assay, protocol 2a, alpha-synuclein fibrils. The conditions noted are these: for Selectivity versus Abeta and tau46 fibrils: saturation binding to alpha-synuclein vs Abeta and tau46 fibrils. Here is the method:
as §1
Sonicated αSYN (0.04 μM) or tau46 (0.4 μM) or Aβ1-42 (6 μM) fibrils diluted in PBS were incubated with decreasing concentrations of [^3H]-labeled compound (48 nM or 24 nM-[…]) in 50 mM Tris-base, 10% ethanol, 0.05% Tween20, pH 7.4. To determine non-specific binding, the respective unlabeled compound (400 nM) was added to a duplicate set of binding reactions.
Assay plates were incubated under agitation at 37° C. for 2 h, covered by plastic foil (Resealable tape, PerkinElmer, Waltham, Mass., USA). Prior to harvesting, a filter (Printed filtermat B, PerkinElmer, Waltham, Mass., USA) was incubated with 5 mg/mL polyethylenimine (PEI, Poly(ethyleneimine) solution, Sigma Aldrich Chemie GmbH, Taufkirchen, Germany) at 4° C. for 30 min. After incubation, bound and free ligands were separated by vacuum filtration using a harvester (Filtermate harvester, PerkinElmer, Waltham, Mass., USA). The filter was washed three times with buffer cooled to 4° C. and subsequently dried in the microwave oven for 2 min at medium power. Melt-on scintillator sheets (MeltiLex™ B/HS, PerkinElmer, Waltham, Mass., USA) were molten into the filter using a heating plate set to 120° C. After solidifying at room temperature, the filter was sealed in a plastic bag (Sample bag for MicroBeta®, PerkinElmer, Waltham, Mass., USA). Accumulation of tritium was counted in a liquid scintillation counter (Wallac MicroBeta® TriLux, 1450 LSC & Luminescence Counter, PerkinElmer, Waltham, Mass., USA) immediately. Radioactivity was plotted against the increasing tritium-labeled compound or cold compound concentrations. Data points were fitted using nonlinear regression analysis in GraphPad Prism (GraphPad Software, Inc., Version 7.03, La Jolla, Calif., USA).
The fibril-binding saturation assay provides KD values. This assay is performed with directly radioactively labeled compounds (e.g. ^3H labeling). The saturation binding assays were performed using as target structures fibrillar aggregates produced from recombinant human alpha-synuclein, Aβ1-42, and tau46, respectively.

[5] abbreviates: fibril-binding saturation assay, summary statement, read-out: KD values, alpha-synuclein fibrils.
[6] abbreviates: saturation assay protocol 2a, [3H]-labeled compound, read-out: KD [nM] for aggregated alpha-synuclein.

We go through 3 compounds from patent publication US20230067910A1, “NOVEL COMPOUNDS FOR THE DIAGNOSIS, TREATMENT AND PREVENTION OF DISEASES ASSOCIATED WITH THE AGGREGATION OF ALPHA-SYNUCLEIN” (MODAG GMBH, priority 2019, published 2023).

Like-named read-outs stand apart in the source and are kept apart here. A value given as a limit tells only on which side of the number the result lay.

T2 sequence (P05067 672-713 limits assumed): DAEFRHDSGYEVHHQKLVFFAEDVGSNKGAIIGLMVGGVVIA

Usually Ki stands for the dissociation constant of the complex between target and ligand, obtained from inhibition or displacement. What is called Kd is the equilibrium constant for the complex coming apart. Turning to `CNc1ccc(-c2cc(-c3ccnc(Br)c3)[nH]n2)cc1` [Compound 2, 4-[5-(2-bromopyridin-4-yl)-1H-pyrazol-3-yl]-N-methylaniline], the “Change in cell number (rel. to DMSO control) [%]” value (“Change in cell number … [%]” below) in assay [1] is −25.8%; in assay [3] it was −44.2%. For the same compound, the inhibition at 10 µM amounted to 49.4% in assay [1] and 79% in assay [3]. Further, in assay [2] (Table 4b, read-out: Ki (nM) alpha-synuclein (sonicated fibrils)), the Ki amounted to 0.3 nM. Further, the Kd at aggregated Abeta is over 100 nM; in assay [4] (setting [5]), under 10 nM; in assay [4] (setting [6]) it was under 1 nM. The “Selectivity versus Abeta and tau46 fibrils” value in assay [4] is “good to excellent selectivity”.

On to `Fc1cc(-c2cc(-c3ccc4c(c3)OCO4)n[nH]2)ccn1` [Compound 12, 4-[3-(1,3-benzodioxol-5-yl)-1H-pyrazol-5-yl]-2-fluoropyridine], for which the “Change in cell number … [%]” value was −22.2% in assay [1] and −9.8% in assay [3]. For the same compound, the values for the inhibition at 10 µM in assay [1] and in assay [3] were -24.9% and -28.4%, respectively. The equilibrium dissociation constant (Kd) in assay [4] (setting [5]) was under 10 nM; in assay [4] (setting [6]), 7 nM.

As to `CN(C)c1ccc(-c2cc(-c3ccnc(Br)c3)[nH]n2)cc1` [Compound 1, 4-[3-(4-dimethylamino-phenyl)-1H-pyrazol-5-yl]-2-bromopyridine], the “Change in cell number … [%]” value in assay [1] is on record as −21.2%; in assay [3], −27.3%. The values for the inhibition at 10 µM in assay [1] and in assay [3] were 11.7% and 65.4%, respectively. The Ki in assay [2] (Table 6 comparison series, read-out: Ki (nM), sonicated alpha-synuclein fibrils) came out at 0.4 nM. Also, the Kd is over 100 nM on aggregated Abeta, under 10 nM in assay [4] (setting [5]) and under 2 nM in assay [4] (setting [6]). The “Selectivity versus Abeta and tau46 fibrils” value in assay [4] is on record as “good to excellent selectivity”.
